In PMC8708872, “Discovery of a Novel Template, 7-Substituted 7-Deaza-4′-Thioadenosine Derivatives as Multi-Kinase Inhibitors” (Pharmaceuticals, 2021):

Tests used:
TRKA = target: T1, TRKA (Homo sapiens, UniProt P04629); assay: Kinase inhibition profile, KINOMEscan 11-point dose response; assay type: binding; details: for IC50: 11-point 3-fold serial dilution; for Ki: by Cheng-Prusoff equation
T1 construct: purchased Eurofins DiscoverX Corporation

DYRK1B = target: T2, DYRK1B (Homo sapiens, UniProt Q9Y463); assay: as above; assay type: binding; details: for IC50: 11-point 3-fold serial dilution; for Ki: by Cheng-Prusoff equation
T2 construct: purchased Eurofins DiscoverX Corporation
T2 sequence (Q9Y463 whole entry): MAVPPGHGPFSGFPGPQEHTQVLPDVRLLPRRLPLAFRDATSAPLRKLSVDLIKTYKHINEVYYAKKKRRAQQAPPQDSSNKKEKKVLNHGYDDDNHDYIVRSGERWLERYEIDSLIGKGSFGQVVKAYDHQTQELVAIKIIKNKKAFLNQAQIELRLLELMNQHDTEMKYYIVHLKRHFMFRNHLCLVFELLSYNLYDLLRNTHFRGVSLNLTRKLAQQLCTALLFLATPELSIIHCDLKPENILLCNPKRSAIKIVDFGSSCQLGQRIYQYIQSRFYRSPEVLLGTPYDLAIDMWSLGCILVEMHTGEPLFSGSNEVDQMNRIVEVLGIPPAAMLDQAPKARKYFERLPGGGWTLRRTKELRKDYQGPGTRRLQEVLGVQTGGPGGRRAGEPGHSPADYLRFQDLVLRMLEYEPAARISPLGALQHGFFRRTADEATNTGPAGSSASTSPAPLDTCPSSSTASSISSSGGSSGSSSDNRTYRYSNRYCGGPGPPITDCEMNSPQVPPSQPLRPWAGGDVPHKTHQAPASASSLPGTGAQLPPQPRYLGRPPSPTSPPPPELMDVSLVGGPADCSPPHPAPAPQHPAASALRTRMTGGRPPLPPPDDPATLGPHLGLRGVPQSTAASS

DYRK1A = target: T3, DYRK1A (Homo sapiens, UniProt Q13627); assay: as above; assay type: binding; details: for IC50: 11-point 3-fold serial dilution; for Ki: by Cheng-Prusoff equation
T3 construct: purchased Eurofins DiscoverX Corporation

CK1δ = target: T4, CK1δ (Homo sapiens, UniProt P48730); assay: as above; assay type: binding; details: for IC50: 11-point 3-fold serial dilution; for Ki: by Cheng-Prusoff equation
T4 construct: purchased Eurofins DiscoverX Corporation
T4 sequence (P48730 whole entry): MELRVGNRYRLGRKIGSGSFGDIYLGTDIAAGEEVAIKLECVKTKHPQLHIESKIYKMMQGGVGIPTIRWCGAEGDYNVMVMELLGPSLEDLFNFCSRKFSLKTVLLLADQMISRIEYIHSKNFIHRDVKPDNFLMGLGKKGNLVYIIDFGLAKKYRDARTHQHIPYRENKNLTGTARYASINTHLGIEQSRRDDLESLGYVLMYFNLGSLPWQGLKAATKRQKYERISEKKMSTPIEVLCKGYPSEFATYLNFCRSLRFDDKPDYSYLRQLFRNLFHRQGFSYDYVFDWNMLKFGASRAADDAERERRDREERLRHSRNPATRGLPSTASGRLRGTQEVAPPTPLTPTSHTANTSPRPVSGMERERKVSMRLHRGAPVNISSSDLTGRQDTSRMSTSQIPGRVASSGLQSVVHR

SNU638 = assay: SRB cell proliferation inhibition assay; assay type: cell-based; details: SNU-638, human stomach cancer cells, 72 h
Procedure: (§1) Human lung cancer cells (A549), colorectal cancer (HCT116) cells, breast cancer cells (MDA-MB-231), liver cancer cells (SK-HEP-1), and prostate cancer cells (PC-3) were purchased from the American Type Culture Collection (Manassas, VA, USA). Human gastric cancer cells (SNU-638) were purchased from the Korean Cell Line Bank (Seoul, Korea). Cells were cultured in medium (Dulbecco’s modified Eagle’s medium for MDA-MB-231 and SK-HEP-1 cells; Roswell Park Memorial Institute 1640 for A549, HCT116, SNU-638, PC-3 cells) supplemented with penicillin-streptomycin and 10% fetal bovine serum at 37 °C in a humidified incubator with 5% carbon dioxide. Cells were seeded at a density of 4–7 × 10^4 cells/mL in 96-well culture plates, and then treated with indicated compounds for 72 h. At the end of the experiment, cells were fixed with 10% trichloroacetic acid (TCA) solution and subjected to sulforhodamine B (SRB) assay to determine cell proliferation. The percentage of cell proliferation was calculated with the following formula:Cell proliferation (%) = 100 × [(A treated − A zero day)/(A control − A zero day)], where A is the average absorbance. The IC50 values were calculated through non-linear regression analysis using TableCurve 2D v5.01 (Systat Software Inc., San Jose, CA, USA). All experiments were performed in triplicate and data shown are representative of two or three independent experiments.

HCT116 = assay: SRB cell proliferation inhibition assay; assay type: cell-based; details: HCT-116, human colon cancer cells, 72 h
Procedure: as §1

SK-HEP-1 = assay: SRB cell proliferation inhibition assay; assay type: cell-based; details: SK-HEP1, human liver cancer cells, 72 h
Procedure: as §1

PC-3 = assay: SRB cell proliferation inhibition assay; assay type: cell-based; details: human prostate cancer cells, 72 h
Procedure: as §1

MDA-MB-231 = assay: SRB cell proliferation inhibition assay; assay type: cell-based; details: human breast cancer cells, 72 h
Procedure: as §1

A549 = assay: SRB cell proliferation inhibition assay; assay type: cell-based; details: human lung cancer cells, 72 h
Procedure: as §1

T1 sequence (P04629 33-796): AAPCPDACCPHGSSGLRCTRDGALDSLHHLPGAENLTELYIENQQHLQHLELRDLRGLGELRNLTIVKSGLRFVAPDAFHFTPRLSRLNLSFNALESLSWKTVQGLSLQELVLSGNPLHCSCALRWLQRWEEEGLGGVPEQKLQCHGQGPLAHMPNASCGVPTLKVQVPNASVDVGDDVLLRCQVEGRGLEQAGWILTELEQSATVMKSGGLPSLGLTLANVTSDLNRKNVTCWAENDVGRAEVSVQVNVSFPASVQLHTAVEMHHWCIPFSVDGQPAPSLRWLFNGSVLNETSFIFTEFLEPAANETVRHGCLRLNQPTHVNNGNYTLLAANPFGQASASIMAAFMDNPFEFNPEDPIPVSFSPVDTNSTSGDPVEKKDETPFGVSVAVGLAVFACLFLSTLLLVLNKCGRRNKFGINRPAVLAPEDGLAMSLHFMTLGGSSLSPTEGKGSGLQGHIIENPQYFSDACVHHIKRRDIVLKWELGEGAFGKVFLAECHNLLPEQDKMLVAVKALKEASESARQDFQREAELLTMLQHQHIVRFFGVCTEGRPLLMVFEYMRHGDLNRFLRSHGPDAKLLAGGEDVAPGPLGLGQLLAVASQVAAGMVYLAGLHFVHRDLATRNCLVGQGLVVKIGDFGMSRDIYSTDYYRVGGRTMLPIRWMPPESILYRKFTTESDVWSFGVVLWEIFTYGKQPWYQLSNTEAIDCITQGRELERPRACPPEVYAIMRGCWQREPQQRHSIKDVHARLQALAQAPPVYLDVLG

Row | Compound | IC50 (TRKA) [nM] | IC50 (DYRK1B) [nM] | Ki (DYRK1B) [nM] | IC50 (DYRK1A) [nM] | Ki (DYRK1A) [nM] | IC50 (CK1δ) [nM] | Ki (TRKA) [nM] | melting point [°C] | Ki (CK1δ) [nM] | IC50 (SNU638) [nM] | IC50 (HCT116) [nM] | IC50 (SK-HEP-1) [nM] | IC50 (PC-3) [nM] | IC50 (MDA-MB-231) [nM] | IC50 (A549) [nM]
1 | Cc1nccc(-c2cn(Cc3ccccc3)c3cnccc23)n1 [AZ Dyrk1B 33, reference compound] | > 10000 | 50 | 50 | 14 | 28 | > 10000 |  |  |  |  |  |  |  |  | 
2 | Nc1ncnc2c1c(-c1ccco1)cn2[C@@H]1S[C@H](CO)[C@@H](O)[C@H]1O [Compound 1a, (2R,3R,4S,5R)-2-(4-Amino-5-(furan-2-yl)-7H-pyrrolo[2,3-d]pyrimidin-7-yl)-5-(hydroxymethyl)tetrahydrothiophene-3,4-diol] | 37 | 14 | 14 | 15 | 30 | 123 | 74 | 197 to 199 | 123 | 1950 | 2160 | 3380 | 2460 | 3310 | 1020
3 | C=Cc1cn([C@@H]2S[C@H](CO)[C@@H](O)[C@H]2O)c2ncnc(N)c12 [Compound 1c, (2R,3R,4S,5R)-2-(4-Amino-5-vinyl-7H-pyrrolo[2,3-d]pyrimidin-7-yl)-5-(hydroxymethyl)tetrahydrothiophene-3,4-diol] | 474 | 86 | 86 | 112 | 224 | 77 | 948 | 110 to 112 | 77 | 470 | 560 | 220 | 200 | 310 | 970
4 | CC(C)(C)C#Cc1cn([C@@H]2S[C@H](CO)[C@@H](O)[C@H]2O)c2ncnc(N)c12 [Compound 1j, (2R,3R,4S,5R)-2-(4-Amino-5-(3,3-dimethylbut-1-yn-1-yl)-7H-pyrrolo[2,3-d]pyrimidin-7-yl)-5-(hydroxymethyl)tetrahydrothiophene-3,4-diol] | 958 | > 10000 |  | > 10000 |  | 1320 |  | 144 to 146 | 1320 | > 50000 | > 50000 | > 50000 | > 50000 | 29600 | > 50000
5 | Nc1ccn([C@@H]2O[C@H](CO)[C@@H](O)C2(F)F)c(=O)n1 [Gemcitabine, reference compound] |  |  |  |  |  |  |  |  |  | 100 | 200 | 200 | 3600 | 1100 | 300
6 | COc1ncc2cc(C(=O)Nc3cc(C(=O)NCc4cccc(Cl)c4)ccc3Cl)c(=O)[nH]c2n1 [TC-S 7004, reference compound] | > 10000 | 22 | 22 | < 10 |  | > 10000 |  |  |  |  |  |  |  |  | 
7 | Cc1ccc(NC(=O)Nc2cc(C(F)(F)F)ccc2F)cc1Nc1ccc2c(c1)NC(=O)/C2=C\c1ccc[nH]1 [GNF 5837, reference compound] | 177 | > 10000 |  | > 10000 |  | > 10000 |  |  |  |  |  |  |  |  | 
8 | Nc1ncnc2c1c(-c1cccs1)cn2[C@@H]1S[C@H](CO)[C@@H](O)[C@H]1O [Compound 1b, (2R,3R,4S,5R)-2-(4-Amino-5-(thiophen-2-yl)-7H-pyrrolo[2,3-d]pyrimidin-7-yl)-5-(hydroxymethyl)tetrahydrothiophene-3,4-diol] | 11 | 117 | 117 | 166 | 332 | 18 | 22 | 166 to 172 |  | 2410 | 1740 | 1380 | 2480 | 2720 | 1650
9 | CCS(=O)(=O)Nc1ccc(-c2cn(C3SC(CO)C(O)C3O)c3ncnc(N)c23)cc1 (stereo not drawn) [Compound 1f, N-(4-(4-Amino-7-(3,4-dihydroxy-5-(hydroxymethyl)tetrahydrothiophen-2-yl)-7H-pyrrolo[2,3-d]pyrimidin-5-yl)phenyl)ethanesulfonamide] | > 10000 | > 10000 |  | > 10000 |  | 910 |  | 127 to 132 | 910 | 27500 | 30600 | 10300 | 15400 | 30100 | 41600
10 | LH 846 [reference compound] | > 10000 | > 10000 |  | > 10000 |  | 80 |  |  |  |  |  |  |  |  | 
11 | Nc1ncnc2c1c(-c1ccc(N3CCS(=O)(=O)CC3)cc1)cn2C1SC(CO)C(O)C1O (stereo not drawn) [Compound 1e, 4-(4-(4-Amino-7-(3,4-dihydroxy-5-(hydroxymethyl)tetrahydrothiophen-2-yl)-7H-pyrrolo[2,3-d]pyrimidin-5-yl)phenyl)thiomorpholine 1,1-dioxide] | > 10000 | > 10000 |  | > 10000 |  | > 10000 |  | 188 to 192 |  | > 50000 | > 50000 | > 50000 | > 50000 | > 50000 | > 50000
12 | COc1cc([C@@H]2c3cc4c(cc3[C@@H](O[C@@H]3O[C@@H]5CO[C@@H](C)O[C@H]5[C@H](O)[C@H]3O)[C@H]3COC(=O)[C@H]23)OCO4)cc(OC)c1O [Etoposide, reference compound] |  |  |  |  |  |  |  |  |  | 410 | 1110 | 910 | 23400 | 4900 | 360
13 | Nc1ncnc2c1c(C#CC1CC1)cn2[C@@H]1S[C@H](CO)[C@@H](O)[C@H]1O [Compound 1k, (2R,3R,4S,5R)-2-(4-Amino-5-(cyclopropylethynyl)-7H-pyrrolo[2,3-d]pyrimidin-7-yl)-5-(hydroxymethyl)tetrahydrothiophene-3,4-diol] | 393 | > 10000 |  | > 10000 |  | 1780 |  | 166 to 168 | 1780 | > 50000 | > 50000 | 8310 | > 50000 | 30600 | > 50000
14 | COc1ccc2c(c1)[nH]c1c(C)nccc12 [Harmine, reference compound] | > 10000 |  |  |  |  |  |  |  |  |  |  |  |  |  | 
